Assay results: ChEMBL document CHEMBL1134828, “The synthesis of cyclic tetrapeptoid analogues of the antiprotozoal natural product apicidin” (2001)
≈ marks a conversion by molar mass, not a printed value.

Experiments:
Leishmania donovani [1] = experiment: Effective dose required for antiprotozoal activity against Leishmania donovani; format: functional; details: read-out: ED50
Trypanosoma brucei = experiment: Effective dose required for antiprotozoal activity against Trypanosoma brucei; format: functional; details: read-out: ED50
Trypanosoma cruzi [2] = experiment: Effective dose required for antiprotozoal activity against Trypanosoma cruzi; format: functional; details: read-out: ED50
Plasmodium falciparum = experiment: Effective dose for antimalarial activity against Plasmodium falciparum; format: functional; details: read-out: ED50
[3] = Cytotoxicity tested against KB cells of human nasopharyngeal epithelial cell line; format: functional; details: read-out: ED50 (the source's name)
Leishmania donovani [4] = experiment: Effective dose required for antiprotozoal activity against Leishmania donovani; T: Toxicity to both mouse macrophage host cells and intracellular parasites prevented determination of antiprotozoal activity; format: functional, organism-based
Trypanosoma cruzi [5] = experiment: Effective dose required for antiprotozoal activity against Trypanosoma cruzi; T: Toxicity to both mouse macrophage host cells and intracellular parasites prevented determination of antiprotozoal activity; format: functional, organism-based

CCC(=O)CCCCC[C@@H]1NC(=O)[C@H]2CCCN2C(=O)[C@H]([C@@H](C)CC)N(C(C)=O)C[C@H](Cc2c[nH]c3ccccc23)NC1=O
EC50 (Leishmania donovani [1]): > 30 µg/mL
EC50 (Trypanosoma brucei): 13 µg/mL (≈ 21.3 µM)
EC50 (Trypanosoma cruzi [2]): > 30 µg/mL
EC50 (Plasmodium falciparum): > 1 µg/mL

CCC(=O)CCCCC[C@@H]1NC(=O)[C@H]2CCCCN2C(=O)[C@H]([C@@H](C)CC)NC(=O)[C@H](Cc2cn(OC)c3ccccc23)NC1=O [APICIDIN]
EC50 [3]: 200 µg/mL (≈ 321 µM)
ED50 (Leishmania donovani [4]): Toxic
EC50 (Trypanosoma brucei): 1.9 µg/mL (≈ 3.05 µM)
EC50 (Plasmodium falciparum): 0.22 µg/mL (≈ 0.353 µM)
ED50 (Trypanosoma cruzi [5]): Toxic

CCC(=O)CCCCC[C@@H]1NC(=O)[C@H]2CCCN2C(=O)[C@H]([C@@H](C)CC)NC[C@H](Cc2c[nH]c3ccccc23)NC1=O
EC50 (Leishmania donovani [1]): > 30 µg/mL
EC50 (Trypanosoma brucei): 11.1 µg/mL (≈ 19.6 µM)
EC50 (Trypanosoma cruzi [2]): > 30 µg/mL
EC50 (Plasmodium falciparum): > 1 µg/mL
